# Experimental data: US7208178B2, “Polymorphs of sodium 4-[(4-chloro-2-hydroxybenzoyl) amino] butanoate” (Emisphere Technologies, Inc., priority 2000, dated 2007)
# Assay: Solid-state stability of amorphous form at ambient conditions
# Type: physicochemical
# Details: amorphous form prepared by solidification, from solution or lyophilization
smiles,measurement,value
"O=C(O)CCCNC(=O)c1ccc(Cl)cc1O [amorphous form, sodium 4-[(4-chloro-2-hydroxybenzoyl)amino]butanoate]",stability at ambient conditions,unstable at ambient conditions and transforms to Form II
